Where a SMILES comes first, the peptide text is derived from it.
target: HLA-A02.01 (Homo sapiens, UniProt P04439, D140Y/D185E/D98H/E176V/E277Q/G131W/G231S/I119V/I121R/I166T/I218V/L300P/L318F/N151K/N90K/P208A/P217A/Q86G/Q94H/R138H/R169H/T345S); assay: Class I MHC peptide binding affinity (displacement of radiolabeled reference peptide); details: Observed Affinity (IC50; (nM)), allele A02.01
Procedure, shortened: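 Radiolabeled reference peptide/MHCI complexes; test peptide titration, 2 d incubation; bound label remaining read by size-exclusion gel filtration.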

Row | Structure (SMILES) | IC50 [nM]
1 | CC[C@H](C)[C@H](N)C(=O)N[C@H](C(=O)N[C@@H](CCC(=O)O)C(=O)N[C@@H](Cc1ccccc1)C(=O)N[C@@H](CCSC)C(=O)N[C@H](C(=O)N[C@@H](Cc1ccc(O)cc1)C(=O)NCC(=O)N[C@@H](CC(N)=O)C(=O)N[C@@H](CC(C)C)C(=O)O)[C@@H](C)O)[C@@H](C)CC (H-IIEFMTYGNL-OH; N-terminus and C-terminus assumed) | 9700
2 | CC[C@H](C)[C@H](N)C(=O)N[C@H](C(=O)N[C@H](C(=O)N[C@@H](CCC(=O)O)C(=O)N[C@@H](Cc1ccccc1)C(=O)N[C@@H](CCSC)C(=O)N[C@H](C(=O)N[C@@H](Cc1ccc(O)cc1)C(=O)NCC(=O)O)[C@@H](C)O)[C@@H](C)CC)[C@@H](C)CC (H-IIIEFMTYG-OH; N-terminus and C-terminus assumed) | 779
3 | CC[C@H](C)[C@H](NC(=O)[C@@H]1CCCN1C(=O)[C@H](CC(C)C)NC(=O)[C@@H](N)CC(C)C)C(=O)N1CCC[C@H]1C(=O)N1CCC[C@H]1C(=O)N[C@@H](CC(C)C)C(=O)N[C@@H](CO)C(=O)N1CCC[C@H]1C(=O)N[C@@H](CO)C(=O)O | 449
4 | CC(C)C[C@H](NC(=O)[C@@H](N)CC(C)C)C(=O)N[C@@H](CO)C(=O)N[C@H](C(=O)N1CCC[C@H]1C(=O)N1CCC[C@H]1C(=O)N[C@@H](CC(C)C)C(=O)N[C@@H](CO)C(=O)N1CCC[C@H]1C(=O)N[C@@H](CO)C(=O)O)[C@@H](C)O (H-LLSTPPLSPS-OH; N-terminus and C-terminus assumed) | 1770

same assay, conditions: allele A02.01; read-out: Observed Affinity (IC50; (nM))

Row | Structure (SMILES) | IC50 [nM]
5 | CC(C)C[C@H](NC(=O)[C@@H](N)CC(C)C)C(=O)NCC(=O)N[C@@H](CCCNC(=N)N)C(=O)N[C@@H](CC(N)=O)C(=O)N[C@@H](CO)C(=O)N[C@@H](Cc1ccccc1)C(=O)N[C@@H](CCC(=O)O)C(=O)N[C@H](C(=O)N[C@@H](CS)C(=O)O)C(C)C (H-LLGRNSFEVC-OH; N-terminus and C-terminus assumed) | 2080
6 | CSCC[C@H](NC(=O)[C@H](CCCCN)NC(=O)[C@H](CCCNC(=N)N)NC(=O)[C@H](CC(C)C)NC(=O)[C@H](CC(N)=O)NC(=O)[C@H](CC(C)C)NC(=O)[C@H](CCCNC(=N)N)NC(=O)[C@H](CC(C)C)NC(=O)[C@H](CC(C)C)NC(=O)[C@@H](N)CCSC)C(=O)O | 2510
7 | CC[C@H](C)[C@H](NC(=O)[C@@H]1CCCN1C(=O)[C@H](CCCNC(=N)N)NC(=O)[C@H](CCC(N)=O)NC(=O)[C@H](CC(N)=O)NC(=O)[C@H](CCSC)NC(=O)CN)C(=O)N[C@@H](CC(C)C)C(=O)N[C@H](C(=O)O)[C@@H](C)O (H-GMNQRPILT-OH; N-terminus and C-terminus assumed) | 3030
8 | CC(C)C[C@H](NC(=O)[C@H](C)NC(=O)[C@H](CCC(=O)O)NC(=O)[C@H](CCC(N)=O)NC(=O)[C@@H](NC(=O)[C@H](CC(=O)O)NC(=O)[C@H](Cc1ccccc1)NC(=O)[C@H](CCC(=O)O)NC(=O)[C@H](CCC(N)=O)NC(=O)[C@@H](N)CC(C)C)C(C)C)C(=O)O [LQEFDVQEAL] (H-LQEFDVQEAL-OH) | 50300
9 | CC[C@H](C)[C@H](NC(=O)[C@@H](N)CC(C)C)C(=O)N[C@H](C(=O)N[C@@H](CO)C(=O)N[C@@H](CCCNC(=N)N)C(=O)N[C@H](C(=O)N[C@@H](CC(C)C)C(=O)N[C@@H](CC(C)C)C(=O)N[C@@H](CC(C)C)C(=O)O)[C@@H](C)O)C(C)C | 173
10 | CC[C@H](C)[C@H](N)C(=O)N[C@@H](CC(C)C)C(=O)N[C@@H](CCSC)C(=O)N[C@@H](CCC(=O)O)C(=O)N[C@@H](CC(C)C)C(=O)N[C@@H](CCSC)C(=O)N[C@@H](C)C(=O)NCC(=O)NCC(=O)N[C@@H](CC(=O)O)C(=O)O (H-ILMELMAGGD-OH; N-terminus and C-terminus assumed) | 3450

Second part, the compound after the results:

Row | IC50 [nM] | Structure (SMILES)
11 | 2060 | CC[C@H](C)[C@H](NC(=O)[C@@H](NC(=O)[C@H](CC(C)C)NC(=O)[C@@H](N)Cc1ccc(O)cc1)C(C)C)C(=O)N[C@@H](CCC(N)=O)C(=O)N[C@@H](CC(C)C)C(=O)N[C@@H](CCC(N)=O)C(=O)N[C@@H](CC(=O)O)C(=O)N[C@@H](CCCCN)C(=O)N[C@@H](Cc1ccccc1)C(=O)O (H-YLVIQLQDKF-OH)
12 | 1400 | CC[C@H](C)[C@H](NC(=O)[C@@H](N)CCCCN)C(=O)N[C@H](C(=O)N[C@@H](CCC(=O)O)C(=O)N[C@@H](CCC(N)=O)C(=O)N[C@@H](CCC(=O)O)C(=O)N[C@@H](CCCCN)C(=O)N[C@@H](CC(=O)O)C(=O)N[C@@H](Cc1ccccc1)C(=O)N[C@@H](CC(C)C)C(=O)O)[C@@H](C)O (H-KITEQEKDFL-OH; N-terminus and C-terminus assumed)
13 | 781 | CC[C@H](C)[C@H](NC(=O)[C@H](Cc1ccc(O)cc1)NC(=O)[C@H](CCC(=O)O)NC(=O)CNC(=O)[C@H](CO)NC(=O)[C@H](Cc1ccccc1)NC(=O)[C@H](C)N)C(=O)N1CCC[C@H]1C(=O)N[C@H](C(=O)N[C@H](C(=O)O)C(C)C)[C@@H](C)O (H-AFSGEYIPTV-OH; N-terminus and C-terminus assumed)
14 | 718 | CC(C)C[C@H](NC(=O)[C@H](C)NC(=O)[C@H](Cc1ccccc1)NC(=O)[C@H](CO)NC(=O)[C@@H](NC(=O)[C@H](CCC(N)=O)NC(=O)[C@@H](NC(=O)[C@@H](NC(=O)[C@H](CCC(N)=O)NC(=O)[C@@H](N)CC(C)C)C(C)C)[C@@H](C)O)[C@@H](C)O)C(=O)O [LQVTQTSFAL] (H-LQVTQTSFAL-OH; N-terminus and C-terminus assumed)
15 | 280 | CC(C)C[C@H](NC(=O)[C@H](CCCNC(=N)N)NC(=O)[C@@H](NC(=O)[C@H](CC(C)C)NC(=O)[C@H](CO)NC(=O)[C@@H](N)CCCCN)C(C)C)C(=O)N[C@@H](CO)C(=O)N[C@@H](CO)C(=O)N[C@@H](CS)C(=O)N[C@H](C(=O)O)C(C)C (H-KSLVRLSSCV-OH; N-terminus and C-terminus assumed)
16 | 139 | CSCC[C@H](NC(=O)[C@H](C)NC(=O)[C@H](CO)NC(=O)[C@H](CCSC)NC(=O)[C@H](CC(C)C)NC(=O)[C@H](C)N)C(=O)N[C@H](C(=O)N[C@H](C(=O)N[C@@H](CO)C(=O)O)[C@@H](C)O)[C@@H](C)O (H-ALMSAMTTS-OH; N-terminus and C-terminus assumed)
17 | 93.2 | CC(C)C[C@H](NC(=O)[C@H](C)NC(=O)[C@H](CC(C)C)NC(=O)[C@H](CC(C)C)NC(=O)[C@@H](N)Cc1ccccc1)C(=O)N[C@@H](Cc1c[nH]c2ccccc12)C(=O)N[C@@H](CCC(=O)O)C(=O)N[C@@H](CS)C(=O)N[C@@H](CO)C(=O)O (H-FLLALWECS-OH; N-terminus and C-terminus assumed)
18 | 78.7 | CC[C@H](C)[C@H](N)C(=O)N[C@H](C(=O)N[C@@H](C)C(=O)N[C@@H](Cc1ccccc1)C(=O)N[C@@H](Cc1ccccc1)C(=O)N[C@@H](CC(C)C)C(=O)N[C@@H](CC(C)C)C(=O)N[C@@H](CC(=O)O)C(=O)N[C@H](C(=O)O)[C@@H](C)CC)[C@@H](C)O (H-ITAFFLLDI-OH; N-terminus and C-terminus assumed)
19 | 42.9 | CC(C)C[C@H](NC(=O)[C@H](Cc1ccccc1)NC(=O)[C@H](Cc1ccccc1)NC(=O)[C@H](CCCCN)NC(=O)[C@@H]1CCCN1C(=O)[C@H](Cc1c[nH]c2ccccc12)NC(=O)[C@H](CCCCN)NC(=O)[C@@H](NC(=O)[C@H](CC(C)C)NC(=O)[C@@H](N)Cc1ccc(O)cc1)[C@@H](C)O)C(=O)O (H-YLTKWPKFFL-OH; N-terminus and C-terminus assumed)
20 | 29.9 | CC(C)C[C@H](NC(=O)[C@H](CCCNC(=N)N)NC(=O)[C@@H](NC(=O)[C@H](CC(C)C)NC(=O)[C@@H](N)CO)C(C)C)C(=O)N[C@@H](CO)C(=O)N[C@@H](CO)C(=O)N[C@@H](CS)C(=O)N[C@H](C(=O)O)C(C)C (H-SLVRLSSCV-OH; N-terminus and C-terminus assumed)
21 | 15 | CC(C)C[C@H](NC(=O)[C@H](C)N)C(=O)N[C@@H](CC(N)=O)C(=O)N[C@@H](CO)C(=O)N[C@@H](CCC(=O)O)C(=O)N[C@@H](C)C(=O)N[C@@H](CC(C)C)C(=O)N[C@@H](CO)C(=O)N[C@H](C(=O)N[C@H](C(=O)O)C(C)C)C(C)C
22 | 9 | CC(C)C[C@H](NC(=O)[C@H](C)N)C(=O)N[C@@H](Cc1c[nH]c2ccccc12)C(=O)N[C@@H](CCC(=O)O)C(=O)N[C@@H](CS)C(=O)N[C@@H](CO)C(=O)N[C@@H](CC(C)C)C(=O)N1CCC[C@H]1C(=O)N[C@@H](CCC(N)=O)C(=O)N[C@@H](C)C(=O)O (H-ALWECSLPQA-OH; N-terminus and C-terminus assumed)
23 | 8.1 | CC[C@H](C)[C@H](NC(=O)[C@H](C)N)C(=O)N[C@@H](CCC(N)=O)C(=O)N1CCC[C@H]1C(=O)N[C@H](C(=O)N[C@@H](CC(C)C)C(=O)N[C@@H](Cc1c[nH]c2ccccc12)C(=O)N[C@H](C(=O)N[C@H](C(=O)O)[C@@H](C)O)[C@@H](C)O)C(C)C (H-AIQPVLWTT-OH; N-terminus and C-terminus assumed)
24 | 2.8 | CC(C)C[C@H](NC(=O)[C@@H]1CCCN1C(=O)[C@@H]1CCCN1C(=O)[C@@H](NC(=O)[C@H](CC(=O)O)NC(=O)[C@H](CCC(=O)O)NC(=O)[C@@H]1CCCN1C(=O)[C@H](CC(C)C)NC(=O)[C@@H](N)CC(C)C)[C@@H](C)O)C(=O)O (H-LLPEDTPPL-OH; N-terminus and C-terminus assumed)
25 | 1.3 | CC(C)C[C@H](NC(=O)[C@H](Cc1c[nH]cn1)NC(=O)[C@H](Cc1c[nH]c2ccccc12)NC(=O)[C@H](CC(C)C)NC(=O)[C@@H](N)CCCNC(=N)N)C(=O)N[C@@H](CC(C)C)C(=O)N[C@@H](CC(C)C)C(=O)N[C@@H](CCC(N)=O)C(=O)N[C@H](C(=O)O)C(C)C (H-RLWHLLLQV-OH; N-terminus and C-terminus assumed)
26 | 0.4 | CC[C@H](C)[C@H](NC(=O)[C@H](CCC(N)=O)NC(=O)[C@H](Cc1c[nH]c2ccccc12)NC(=O)[C@H](Cc1ccccc1)NC(=O)CNC(=O)[C@H](CS)NC(=O)[C@H](CC(C)C)NC(=O)[C@H](C)NC(=O)[C@@H](N)Cc1ccccc1)C(=O)O (H-FALCGFWQI-OH; N-terminus and C-terminus assumed)

— patent US20220282217A1, “COMPOSITIONS AND METHODS FOR PREPARING T CELL COMPOSITIONS AND USES THEREOF” (priority 2019, published 2022)
